Measurements: ChEMBL document CHEMBL3769378, “Protective effect and mechanism of action of saponins isolated from the seeds of gac (Momordica cochinchinensis Spreng.) against cisplatin-induced damage in LLC-PK1 kidney cells” (2016)
The source made the active and inactive calls. The rule behind the calls is not given here.

Assays:
[1] = test system: LLC-PK1; assay: Renoprotective activity in pig LLC-PK1 cells assessed as reduction in cisplatin-induced toxicity by measuring cell viability at 5 to 50 uM after 24 hrs by MTT assay relative to control; assay type: functional
[2] = test system: LLC-PK1; assay: Renoprotective activity in pig LLC-PK1 cells assessed as reduction in cisplatin-induced toxicity by measuring cell viability after 24 hrs by MTT assay; assay type: functional, cell-based; conditions: Sus scrofa
[3] = test system: LLC-PK1; assay: Inhibition of cisplatin-induced apoptosis in pig LLC-PK1 cells at 50 uM after 24 hrs by annexin V-Alexa Fluor 488/propidium iodide staining-based flow cytometry; assay type: functional, cell-based; conditions: Sus scrofa
[4] = test system: LLC-PK1; assay: Inhibition of cisplatin-induced JNK phosphorylation in pig LLC-PK1 cells at 50 uM after 24 hrs by Western blotting method; assay type: cell-based; conditions: Sus scrofa
[5] = test system: LLC-PK1; assay: Inhibition of cisplatin-induced p38 phosphorylation in pig LLC-PK1 cells at 50 uM after 24 hrs by Western blotting method; assay type: cell-based; conditions: Sus scrofa
[6] = test system: LLC-PK1; assay: Inhibition of cisplatin-induced caspase-3 activity in pig LLC-PK1 cells assessed as decrease in cleaved caspase 3 level at 50 uM after 24 hrs by Western blotting method; assay type: functional, cell-based; conditions: Sus scrofa

SMILES	Activity ([1]; Sus scrofa)	Activity [2]	Activity [1]	inhibition [3]	inhibition [4]	inhibition [5]	inhibition [6]
C[C@@H]1O[C@@H](O[C@H]2[C@H](O)[C@@H](C(=O)O)O[C@@H](O[C@@H]3CC[C@]4(C)[C@H](CC[C@@]5(C)[C@H]4CC=C4[C@H]6CC(C)(C)CC[C@@]6(C(=O)O[C@@H]6O[C@H](C)[C@H](O)[C@H](O)[C@H]6O[C@H]6O[C@H](C)[C@@H](O[C@H]7OC[C@H](O)[C@@H](O)[C@@H]7O)[C@H](O[C@H]7O[C@@H](CO)[C@H](O)[C@@H](O[C@@H]8OC[C@@H](O)[C@H](O)[C@H]8O)[C@@H]7O)[C@@H]6O)CC[C@@]45C)[C@@]3(C)C=O)[C@@H]2O[C@@H]2O[C@H](CO)[C@H](O)[C@H](O)[C@H]2O)[C@H](O)[C@H](O)[C@H]1O	Active						
C[C@H]1O[C@H](O[C@H]2[C@H](O)[C@@H](C(=O)O)O[C@@H](O[C@@H]3CC[C@]4(C)[C@H](CC[C@@]5(C)[C@H]4CC=C4[C@H]6CC(C)(C)CC[C@@]6(C(=O)O)CC[C@@]45C)[C@@]3(C)C=O)[C@@H]2O[C@H]2O[C@@H](CO)[C@@H](O)[C@@H](O)[C@@H]2O)[C@@H](O)[C@@H](O)[C@@H]1O		Dose-dependent effect	<=80%	Active	Active	Active	Active
C[C@H]1O[C@H](O[C@H]2[C@H](O)[C@@H](C(=O)O)O[C@@H](O[C@@H]3CC[C@]4(C)[C@H](CC[C@@]5(C)[C@H]4CC=C4[C@H]6CC(C)(C)CC[C@@]6(C(=O)O)[C@@H](O)C[C@@]45C)[C@@]3(C)C=O)[C@@H]2O[C@H]2O[C@@H](CO)[C@@H](O)[C@@H](O)[C@@H]2O)[C@@H](O)[C@@H](O)[C@@H]1O		Dose-dependent effect	<=80%	Active	Active	Active	Active
